The text below walks through data of patent US20150111933A1, “Deuterated Thiazolidinone Analogues as Agonists for Follicle Stimulating Hormone Receptor” (Merck Patent GmbH, priority 2012, published 2015).

Series [1] in a line: Intrinsic clearance (Clint) in human liver microsomes. The class given is in vitro ADME. To be noted: 0.5 mg/mL protein, NADPH, up to 30 min, first value of human/rat; for microsomal CLint at 0.8 μM: human, liver microsomes, pH 7.4, human liver microsomes. As for the experimental part:
(§1) Intrinsic Clearance (Clint) Assay Protocol:
(§2) A Tecan Genesis workstation (RSP 150/8) was used for to perform the microsomal incubations. Analysis was carried out using a Waters ACQUITY UPLC system coupled to an ABSciex API3000 mass spectrometer. Data analysis was performed using Assay Explorer (Symyx).
(§3) 0.1 M potassium phosphate buffer pH 7.4 containing 1 mM MgCl2 15 mM NADPH in phosphate buffer 4.4 mg protein/mL liver microsomes in phosphate buffer acetonitrile 20% DMSO in water
(§4) Each experiment consists of 12 test and 2 reference compounds. The reference compounds are incubated as a cocktail. Dilution of test compounds was done in 2 steps from a 10 mM DMSO stock solution. First 4 μL stock solution was added to 196 μL of 20% DMSO in potassium phosphate buffer pH 7.4. In a second step 10 μL of the first dilution were added to […] potassium phosphate buffer and 100 μL internal standard solution to a final concentration of 0.8 μM. 100 μL of the final compound dilution were aliquoted into a 96 deep well plate. 12.5 μL liver microsomes were added to each well (0.5 mg/mL final protein concentration) and the samples preincubated for 5 min at 37° C. and 800 rpm agitation.
(§5) After the preincubation, 250 μL cold acetonitrile were added to the 0 min samples to prevent a reaction. Following this, 12.5 μL NADPH solution were added to all wells to start the incubation, with the exception of the 0 min and 30 min controls without cofactor, where the NADPH was substituted for phosphate buffer.
(§6) The incubations were stopped after 5, 10, 20 and 30 min by adding 250 μL cold acetonitrile to the individual wells.
(§7) The quenched samples were then centrifuged at 4000 g for 1 h at 4° C. 100 μL of the supernatant were transferred into 96 well plates for analysis.
(§8) The metabolic stability of each compound was determined by measurement of the change in LC-MS/MS peak area over time. Assay Explorer software was used to automatically calculate the slope k of the decline. The intrinsic clearance (Clint) of each compound was then calculated according to the formula:
(§9) Clint (μL/min/mg protein)=k1000/protein concentration.

Series [2] in a line: Intrinsic clearance (Clint) in rat liver microsomes. The class given is in vitro ADME. Particulars: 0.5 mg/mL protein, NADPH, up to 30 min, second value of human/rat; for microsomal CLint at 0.8 μM: rat, liver microsomes, pH 7.4, rat liver microsomes. As for the experimental part: as §1, §2, §3, §4, §5, §6, §7, §8, §9
In series [3] the target is T1, FSHR (Homo sapiens, UniProt P23945).
T1 construct: expressed in transfected cells; host or cells: CHO (Cho-FSHR-LUC-1-1-43)
T1 sequence (P23945 18-695): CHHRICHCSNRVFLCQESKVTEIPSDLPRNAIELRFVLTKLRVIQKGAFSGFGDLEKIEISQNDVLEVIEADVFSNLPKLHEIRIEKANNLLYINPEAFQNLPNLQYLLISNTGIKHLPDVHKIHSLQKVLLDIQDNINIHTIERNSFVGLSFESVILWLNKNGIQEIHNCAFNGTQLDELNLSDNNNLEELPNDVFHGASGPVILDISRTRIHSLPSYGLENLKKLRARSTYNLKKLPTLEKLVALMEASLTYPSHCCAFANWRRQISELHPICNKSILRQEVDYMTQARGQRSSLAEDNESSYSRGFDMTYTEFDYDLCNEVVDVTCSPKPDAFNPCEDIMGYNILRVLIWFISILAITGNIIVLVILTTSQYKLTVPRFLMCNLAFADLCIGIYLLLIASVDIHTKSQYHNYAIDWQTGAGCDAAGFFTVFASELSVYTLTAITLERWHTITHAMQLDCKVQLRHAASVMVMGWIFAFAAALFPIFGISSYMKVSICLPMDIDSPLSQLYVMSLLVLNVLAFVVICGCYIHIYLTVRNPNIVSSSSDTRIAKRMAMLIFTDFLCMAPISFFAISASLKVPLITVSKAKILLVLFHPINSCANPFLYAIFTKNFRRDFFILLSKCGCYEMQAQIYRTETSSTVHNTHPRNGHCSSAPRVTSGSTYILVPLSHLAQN
In words: EC50 of cyclic AMP production in CHO FSHR cells + EC20 FSH (HTRF). The class given is cell-based. To be noted: Cho-FSHR-LUC-1-1-43 cells; for Emax: 1 h, read-out: EC50 of cAMP production (% effect); for EC50: + EC20 FSH (0.265 pM), 200 μM IBMX, 1 h at 37° C., read-out: EC50 of cAMP production. As for the experimental part:
EC50 of Cyclic AMP Production in CHO FSHR Cells+EC20 FSH
2500 Cho-FSHR-LUC-1-1-43 cells were plated per well in 5 μL of phenol red free DMEM/F12+1% FBS. Cells were plated in 384 well, solid white low volume plates (Greiner 784075) by Multidrop. Cells were assayed by adding […] of 2×EC20 FSH/IBMX in DMEM/F12+0.1% BSA) by Multidrop to 2 μL of test compound stamped in 384 well plates (compounds are diluted 1:50). The final FSH concentration was 0.265 pM, and the final IBMX concentration was 200 μM. The compound plate map was as follows: Column 1: 2 μL of DMSO; Column 2: 2 μL of DMSO; Columns 3-12 and 13-24: 2 μL of test compound, diluted 1:4 in 100% DMSO, or 2 μL of FSH, diluted 1:4 in DMEM/F12+0.1% BSA. The starting concentration for FSH was 50 nM (final concentration was 0.5 nM). Furthermore, Column 23 contained 2 μL of EC100 FSH reference (100×) (diluted in DMEM/F12+0.1% BSA) at a final concentration of 0.5 nM, and Column 24 contained 2 μL of 1 mM AS707664/2 reference compound 2. 5 μL of compound+EC20 FSH mixture were transferred to cell plates (1:2 dilution into 5 μL of cell media) The plates were incubated at 37° C. for 1 h. 10 μL of mixed HTRF (CisBio #62AM4PEC) reagents were added per well and incubated at room temperature for 1 h. The plates were read on Envision using the cAMP HTRF—low volume 384 well protocol. The readout was the calculated fluorescence ratio (665 nm/620 nm).

The mark [4] stands for this setting: + EC20 FSH, % effect in brackets.

Structures are written as SMILES.

Regarding `[2H]c1c([2H])c([2H])c(C#Cc2ccc([C@@H]3S[C@H](CC(=O)NC([2H])([2H])C([2H])([2H])c4ccc(OC([2H])([2H])[2H])c(OCC)c4)C(=O)N3c3cccc(C(N)=O)c3)cc2)c([2H])c1[2H]` (single isomer, unassigned) [Compound 10], the microsomal CLint at 0.8 μM was found to be 161 µL/min/mg in series [1] and 23 µL/min/mg in series [2]. Further, in series [3] (setting [4]), the Emax was 98%. The EC50 in series [3] amounted to 0.3 nM.

For `[2H]C([2H])(NC(=O)C[C@H]1S[C@@H](c2ccc(C#Cc3ccccc3)cc2)N(c2cccc(C(N)=O)c2)C1=O)C([2H])([2H])c1ccc(OC)c(OCC)c1` (single isomer, unassigned) [Compound 14], the “Clint (human)” value in series [1] (human liver microsomes) came to 492 μL/min/mg protein. The “Clint (rat)” value in series [2] (rat liver microsomes) was determined as 95 μL/min/mg protein. Moreover, the half-maximal effective concentration (EC50) in series [3] turned out to be 2 nM. The “EC50 of cAMP production (% effect)” value in series [3] (+ EC20 FSH, % effect in brackets, 60 min) is given as “(99) %”.

In the case of `[2H]c1c([2H])c([2H])c(C#Cc2c([2H])c([2H])c([C@H]3N(c4cccc(C(N)=O)c4)C(=O)[C@@H](CC(=O)NC([2H])([2H])C([2H])([2H])c4ccc(OC([2H])([2H])[2H])c(OCC)c4)[S@@+]3[O-])c([2H])c2[2H])c([2H])c1[2H]` (single isomer, unassigned) [Compound 20], the figures for the intrinsic metabolic clearance (microsomal CLint) at 0.8 μM in series [1] and in series [2] were 35 µL/min/mg and 18 µL/min/mg, respectively. The Emax in series [3] (setting [4]) came out at 103%. Also, the EC50 in series [3] was found to be 25 nM.

As for `[2H]c1c([2H])c([2H])c(C#Cc2c([2H])c([2H])c([C@H]3N(c4cccc(C(N)=O)c4)C(=O)[C@@H](CC(=O)NC([2H])([2H])C([2H])([2H])c4ccc(OC([2H])([2H])[2H])c(OC([2H])([2H])[2H])c4)[S@@+]3[O-])c([2H])c2[2H])c([2H])c1[2H]` (single isomer, unassigned) [Compound 21], the intrinsic clearance (microsomal CLint) at 0.8 μM in series [1] came out at 351 µL/min/mg; in series [2] it was 241 µL/min/mg. For the same compound, the Emax in series [3] (setting [4]) came out at 103%. Moreover, the EC50 in series [3] turned out to be 113 nM.

Turning to `[2H]C([2H])(NC(=O)C[C@H]1S[C@@H](c2ccc(C#Cc3ccccc3)cc2)N(c2cccc(C(N)=O)c2)C1=O)C([2H])([2H])c1ccc(OC)c(OC)c1` [Compound 2, 3-((2S,5R)-4-oxo-5-(2-oxo-2-((1,1,2,2-d4-2-(3,4-dimethoxyphenyl)ethyl)amino)ethyl)-2-(4-(phenylethynyl)phenyl)thiazolidin-3-yl)benzamide], the intrinsic clearance (microsomal CLint) at 0.8 μM in series [1] worked out at 106 µL/min/mg; in series [2], 24 µL/min/mg. Further, in series [3] (setting [4]), the Emax is 97%. Further, in series [3], the EC50 is 1.9 nM.

With `[2H]C([2H])([2H])Oc1ccc(C([2H])([2H])C([2H])([2H])NC(=O)C[C@H]2S[C@@H](c3ccc(C#Cc4ccccc4)cc3)N(c3cccc(C(N)=O)c3)C2=O)cc1OC` [Compound 3, 3-((2S,5R)-4-oxo-5-(2-oxo-2-((1,1,2,2-d4-2-(3-methoxy-4-(methoxy-d3)phenyl)ethyl)amino)ethyl)-2-(4-(phenylethynyl)phenyl)thiazolidin-3-yl)benzamide], the results for the intrinsic metabolic clearance (microsomal CLint) at 0.8 μM in series [1] and in series [2] were 111 µL/min/mg and 29 µL/min/mg, respectively. In addition, the Emax in series [3] (setting [4]) is 97%. Further, the EC50 in series [3] was found to be 1.7 nM.

In the case of `CCOc1cc(CCNC(=O)C[C@H]2S[C@@H](c3ccc(C#Cc4ccccc4)cc3)N(c3cccc(C(N)=O)c3)C2=O)ccc1OC` [Reference compound, reference compound], the figures for the intrinsic clearance (microsomal CLint) at 0.8 μM in series [1] and in series [2] were 182 µL/min/mg and 120 µL/min/mg, respectively. The Emax in series [3] (setting [4]) stood at 98%. Also, the EC50 in series [3] came out at 0.3 nM.
